The source of these data is PMC11167047 (Cell Death Discovery, 2024).

Holding throughout (test): kinome screen (33PanQinase)
Assay type in all cases: biochemical

Experiment [1] addresses T1, MARK4 (Homo sapiens, UniProt Q96L34).
T1 construct: purchased Reaction Biology Europe GmbH (formerly ProQinase)
T1 sequence (Q96L34 1-752): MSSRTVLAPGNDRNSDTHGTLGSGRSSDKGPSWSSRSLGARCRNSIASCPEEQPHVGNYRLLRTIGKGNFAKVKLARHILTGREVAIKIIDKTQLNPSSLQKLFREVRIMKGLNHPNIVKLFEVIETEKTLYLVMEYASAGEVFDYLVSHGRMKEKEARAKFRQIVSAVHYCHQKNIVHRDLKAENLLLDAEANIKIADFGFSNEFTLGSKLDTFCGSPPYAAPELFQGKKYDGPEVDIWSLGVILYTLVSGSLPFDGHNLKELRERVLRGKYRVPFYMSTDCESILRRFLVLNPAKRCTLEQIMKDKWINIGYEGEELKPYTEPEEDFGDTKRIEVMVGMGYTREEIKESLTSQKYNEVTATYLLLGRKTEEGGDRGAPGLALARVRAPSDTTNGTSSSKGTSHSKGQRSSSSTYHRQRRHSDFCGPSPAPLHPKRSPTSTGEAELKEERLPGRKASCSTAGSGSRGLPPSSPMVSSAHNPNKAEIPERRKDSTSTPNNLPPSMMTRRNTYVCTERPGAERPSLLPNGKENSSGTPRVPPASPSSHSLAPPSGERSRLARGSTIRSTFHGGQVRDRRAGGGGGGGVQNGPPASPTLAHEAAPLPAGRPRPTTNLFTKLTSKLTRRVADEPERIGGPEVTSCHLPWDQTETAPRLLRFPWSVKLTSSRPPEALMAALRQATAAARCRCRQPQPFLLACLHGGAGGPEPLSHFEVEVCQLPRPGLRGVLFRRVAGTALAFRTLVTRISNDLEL
As for the experimental part:
(§1) The Kinome Screening was performed by Reaction Biology Europe GmbH (http://reactionbiology.com; Freiburg i. Br., Germany).

Experiment [2] has as its target T2, RET (Homo sapiens, UniProt P07949).
T2 construct: purchased Reaction Biology Europe GmbH (formerly ProQinase)
The method, then:
as §1

Experiment [3] concerns the target T3, RPS6KA3 (Homo sapiens, UniProt P51812).
T3 construct: purchased Reaction Biology Europe GmbH (formerly ProQinase)
The method, then: as §1

The target of experiment [4] is T4, FES (Homo sapiens, UniProt P07332).
T4 construct: purchased Reaction Biology Europe GmbH (formerly ProQinase)
The method, then:
as §1

Experiment [5] has as its target T5, GSG2 (Homo sapiens, UniProt Q8TF76).
T5 construct: purchased Reaction Biology Europe GmbH (formerly ProQinase)
T5 sequence (Q8TF76 1-798): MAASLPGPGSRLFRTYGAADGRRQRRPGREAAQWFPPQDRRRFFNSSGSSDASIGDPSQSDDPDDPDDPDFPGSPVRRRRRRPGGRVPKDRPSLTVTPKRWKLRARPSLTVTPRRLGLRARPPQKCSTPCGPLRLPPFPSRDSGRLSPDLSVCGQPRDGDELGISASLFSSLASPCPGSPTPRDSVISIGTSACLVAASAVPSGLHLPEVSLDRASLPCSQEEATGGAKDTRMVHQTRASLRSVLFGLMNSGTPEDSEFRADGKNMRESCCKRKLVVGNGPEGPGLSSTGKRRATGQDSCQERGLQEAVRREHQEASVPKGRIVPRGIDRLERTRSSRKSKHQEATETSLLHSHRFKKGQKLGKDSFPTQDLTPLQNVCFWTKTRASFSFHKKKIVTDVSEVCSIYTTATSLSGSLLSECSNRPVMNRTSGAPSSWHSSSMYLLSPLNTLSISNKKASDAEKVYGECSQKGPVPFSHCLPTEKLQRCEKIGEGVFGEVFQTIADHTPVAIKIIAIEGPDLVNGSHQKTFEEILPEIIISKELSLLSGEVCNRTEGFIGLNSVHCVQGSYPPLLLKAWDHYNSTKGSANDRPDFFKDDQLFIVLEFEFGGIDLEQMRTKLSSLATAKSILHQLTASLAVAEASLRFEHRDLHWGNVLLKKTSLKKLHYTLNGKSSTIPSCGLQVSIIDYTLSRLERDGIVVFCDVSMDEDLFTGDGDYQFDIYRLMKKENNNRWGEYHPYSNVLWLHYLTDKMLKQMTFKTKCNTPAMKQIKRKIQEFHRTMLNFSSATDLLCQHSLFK
As for the experimental part:
as §1

Experiment [6] has as its target T6, IRAK4 (Homo sapiens, UniProt Q9NWZ3).
T6 construct: purchased Reaction Biology Europe GmbH (formerly ProQinase)
T6 sequence (Q9NWZ3 1-460): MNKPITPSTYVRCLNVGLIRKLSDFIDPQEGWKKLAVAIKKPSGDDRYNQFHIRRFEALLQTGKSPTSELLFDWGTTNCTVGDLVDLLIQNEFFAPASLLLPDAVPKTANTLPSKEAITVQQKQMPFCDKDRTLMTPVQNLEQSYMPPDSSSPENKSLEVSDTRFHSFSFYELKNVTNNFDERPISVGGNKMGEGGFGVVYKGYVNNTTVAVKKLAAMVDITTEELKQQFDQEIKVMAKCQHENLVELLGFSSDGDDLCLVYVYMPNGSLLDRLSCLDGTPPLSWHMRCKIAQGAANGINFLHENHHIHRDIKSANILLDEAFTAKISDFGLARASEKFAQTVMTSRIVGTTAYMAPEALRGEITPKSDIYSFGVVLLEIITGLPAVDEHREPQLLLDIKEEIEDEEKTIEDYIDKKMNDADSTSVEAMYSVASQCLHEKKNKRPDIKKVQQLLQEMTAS
The method, then:
as §1

T2 sequence (P07949 29-1114): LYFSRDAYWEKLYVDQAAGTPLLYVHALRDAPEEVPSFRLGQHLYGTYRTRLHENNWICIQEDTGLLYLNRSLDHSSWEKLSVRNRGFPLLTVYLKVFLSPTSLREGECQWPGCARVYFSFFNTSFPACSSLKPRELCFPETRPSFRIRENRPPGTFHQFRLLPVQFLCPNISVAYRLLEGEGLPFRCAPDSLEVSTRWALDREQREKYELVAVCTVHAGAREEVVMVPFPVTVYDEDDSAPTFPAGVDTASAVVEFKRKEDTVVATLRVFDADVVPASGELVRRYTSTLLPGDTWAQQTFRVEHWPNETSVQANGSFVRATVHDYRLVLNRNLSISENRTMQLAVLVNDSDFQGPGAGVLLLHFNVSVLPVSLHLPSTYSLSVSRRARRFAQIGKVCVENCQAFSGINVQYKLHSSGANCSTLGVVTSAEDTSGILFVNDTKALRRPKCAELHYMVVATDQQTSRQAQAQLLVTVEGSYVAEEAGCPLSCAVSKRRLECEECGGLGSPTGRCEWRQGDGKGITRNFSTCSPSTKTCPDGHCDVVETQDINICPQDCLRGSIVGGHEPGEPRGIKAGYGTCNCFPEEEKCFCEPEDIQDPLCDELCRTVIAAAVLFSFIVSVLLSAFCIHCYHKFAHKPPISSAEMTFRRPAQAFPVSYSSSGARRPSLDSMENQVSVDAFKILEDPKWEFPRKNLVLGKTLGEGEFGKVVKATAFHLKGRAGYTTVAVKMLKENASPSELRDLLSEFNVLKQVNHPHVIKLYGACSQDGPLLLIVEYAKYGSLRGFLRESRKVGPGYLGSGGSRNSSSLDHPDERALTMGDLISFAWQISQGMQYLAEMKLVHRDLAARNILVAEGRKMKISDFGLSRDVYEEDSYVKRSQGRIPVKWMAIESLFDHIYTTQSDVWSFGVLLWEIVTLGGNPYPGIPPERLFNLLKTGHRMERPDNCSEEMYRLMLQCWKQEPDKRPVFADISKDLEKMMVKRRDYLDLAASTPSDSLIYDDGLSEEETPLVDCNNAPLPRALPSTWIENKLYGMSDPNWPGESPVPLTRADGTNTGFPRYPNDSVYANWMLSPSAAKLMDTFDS
T3 sequence (P51812 whole entry): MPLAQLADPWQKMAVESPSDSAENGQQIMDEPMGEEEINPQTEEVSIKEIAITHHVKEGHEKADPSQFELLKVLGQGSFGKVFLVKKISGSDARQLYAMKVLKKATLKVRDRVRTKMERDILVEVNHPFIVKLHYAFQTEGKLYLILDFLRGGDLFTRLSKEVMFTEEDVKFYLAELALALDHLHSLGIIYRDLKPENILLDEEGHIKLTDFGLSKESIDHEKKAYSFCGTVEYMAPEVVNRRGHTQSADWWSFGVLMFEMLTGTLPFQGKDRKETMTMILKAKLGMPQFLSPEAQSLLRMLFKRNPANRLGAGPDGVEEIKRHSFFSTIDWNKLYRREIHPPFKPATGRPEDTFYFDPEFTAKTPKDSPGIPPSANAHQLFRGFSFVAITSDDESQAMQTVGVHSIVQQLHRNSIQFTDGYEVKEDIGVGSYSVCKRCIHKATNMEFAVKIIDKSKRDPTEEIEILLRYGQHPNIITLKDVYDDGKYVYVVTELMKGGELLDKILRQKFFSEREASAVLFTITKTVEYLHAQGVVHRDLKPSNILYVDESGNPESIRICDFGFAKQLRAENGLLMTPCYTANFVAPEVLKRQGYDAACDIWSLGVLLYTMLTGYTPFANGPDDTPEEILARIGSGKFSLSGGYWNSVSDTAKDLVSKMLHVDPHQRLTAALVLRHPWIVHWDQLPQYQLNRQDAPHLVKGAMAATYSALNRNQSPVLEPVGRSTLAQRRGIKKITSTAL
T4 sequence (P07332 whole entry): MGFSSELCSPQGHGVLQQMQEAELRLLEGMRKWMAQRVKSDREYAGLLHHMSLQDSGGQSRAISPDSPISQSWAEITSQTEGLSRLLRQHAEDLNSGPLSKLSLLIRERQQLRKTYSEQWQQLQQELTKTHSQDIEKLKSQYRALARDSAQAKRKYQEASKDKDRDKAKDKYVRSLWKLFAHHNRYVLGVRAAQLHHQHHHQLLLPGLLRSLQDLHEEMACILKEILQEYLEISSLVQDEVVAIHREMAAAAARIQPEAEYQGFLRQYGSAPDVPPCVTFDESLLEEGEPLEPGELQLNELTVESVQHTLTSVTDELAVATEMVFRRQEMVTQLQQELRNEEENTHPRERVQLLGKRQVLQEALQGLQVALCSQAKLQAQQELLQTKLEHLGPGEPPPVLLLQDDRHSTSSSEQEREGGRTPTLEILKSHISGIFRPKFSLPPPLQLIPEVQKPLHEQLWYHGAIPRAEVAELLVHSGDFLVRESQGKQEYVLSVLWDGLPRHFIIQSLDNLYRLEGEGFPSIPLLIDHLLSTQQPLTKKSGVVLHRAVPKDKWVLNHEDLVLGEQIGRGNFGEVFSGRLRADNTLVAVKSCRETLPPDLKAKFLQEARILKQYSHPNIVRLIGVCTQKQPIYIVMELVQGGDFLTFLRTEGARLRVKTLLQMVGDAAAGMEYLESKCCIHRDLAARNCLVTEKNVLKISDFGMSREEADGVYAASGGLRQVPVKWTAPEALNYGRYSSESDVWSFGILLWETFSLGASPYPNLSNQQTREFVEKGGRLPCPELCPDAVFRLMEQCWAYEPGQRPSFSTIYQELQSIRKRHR

For `c1ccc(CNc2cc(-c3c[nH]c4ncccc34)ccn2)cc1` [meriolin 36], the residual kinase activity was 90 % of control in experiment [1] (0.3 µM); 54 % of control in experiment [1] (3 µM); 61 % of control in experiment [2] (0.3 µM); 12 % of control in experiment [2] (3 µM); 7 % of control in experiment [3] (0.3 µM); 1 % of control in experiment [3] (3 µM). The residual kinase activity is on record as 83 % of control in experiment [4] (0.3 µM); 50 % of control in experiment [4] (3 µM); 2 % of control in experiment [5] (0.3 µM); 0 % of control in experiment [5] (3 µM); 14 % of control in experiment [6] (0.3 µM); 2 % of control in experiment [6] (3 µM).

As to `COc1ccnc2[nH]cc(-c3cc(N)nc(N)c3)c12` [meriolin 16], the residual kinase activity in experiment [1] (0.03 µM) is on record as 99 % of control; in experiment [1] (0.3 µM), 91 % of control; in experiment [2] (0.03 µM), 106 % of control; in experiment [2] (0.3 µM), 100 % of control; in experiment [3] (0.03 µM), 85 % of control; in experiment [3] (0.3 µM), 39 % of control. Moreover, the residual kinase activity in experiment [4] (0.03 µM) was 93 % of control; in experiment [4] (0.3 µM), 87 % of control; in experiment [5] (0.03 µM), 2 % of control; in experiment [5] (0.3 µM), 0 % of control; in experiment [6] (0.03 µM), 83 % of control; in experiment [6] (0.3 µM) it was 50 % of control.
